Source: ChEMBL document CHEMBL3885881, “DrugMatrix”

Species: Rattus norvegicus
Assay: DrugMatrix - Regimen: Daily Repeat
Type: toxicity, organism-based, Sprague-Dawley
Design: regimen Daily Repeat, gender Male, age 6-8 weeks
Settings: in vivo, po, 0.3 mg/kg, route oral GAVAGE, dose level Low, vehicle .5 % CMC; for ABSOLUTE BASOPHIL / ABSOLUTE EOSINOPHIL / ABSOLUTE LYMPHOCYTE / ABSOLUTE MONOCYTE / ABSOLUTE SEGMENTED NEUTROPHIL / BASOPHIL / EOSINOPHIL / ERYTHROCYTE COUNT / HEMATOCRIT / HEMOGLOBIN / LEUKOCYTE COUNT / LYMPHOCYTE / MEAN CORPUSCULAR HEMOGLOBIN / MEAN CORPUSCULAR HEMOGLOBIN CONCENTRATION / MEAN CORPUSCULAR VOLUME / MONOCYTE / NEUTROPHIL / NUCLEATED RED BLOOD CELLS / PLATELET COUNT: tissue Blood; for ALANINE AMINOTRANSFERASE / ALBUMIN / ALKALINE PHOSPHATASE / ASPARTATE AMINOTRANSFERASE / BLOOD UREA NITROGEN / CARBON DIOXIDE / CHLORIDE / CHOLESTEROL / CREATINE PHOSPHOKINASE / CREATININE / GLUCOSE / LACTATE DEHYDROGENASE / LIPASE / PHOSPHORUS / POTASSIUM / SODIUM / TOTAL BILIRUBIN / TOTAL PROTEIN / URIC ACID: tissue Plasma

Nc1c(CC(=O)O)cccc1C(=O)c1ccc(Br)cc1 [BROMFENAC]
ABSOLUTE BASOPHIL (72 h, time 3 day): 0 CELLS/uL
ABSOLUTE EOSINOPHIL (72 h, time 3 day): 0 CELLS/uL
ABSOLUTE LYMPHOCYTE (72 h, time 3 day): 8435.67 CELLS/uL
ABSOLUTE MONOCYTE (72 h, time 3 day): 96.67 CELLS/uL
ABSOLUTE SEGMENTED NEUTROPHIL (72 h, time 3 day): 1134.33 CELLS/uL
BASOPHIL (72 h, time 3 day): 0%
EOSINOPHIL (72 h, time 3 day): 0%
ERYTHROCYTE COUNT (72 h, time 3 day): 5.55 x10E6/uL
HEMATOCRIT (72 h, time 3 day): 35.1%
HEMOGLOBIN (72 h, time 3 day): 13.07 G/DL
LEUKOCYTE COUNT (72 h, time 3 day): 9.67 x10E3/uL
LYMPHOCYTE (72 h, time 3 day): 88%
MEAN CORPUSCULAR HEMOGLOBIN (72 h, time 3 day): 23.57 pg
MEAN CORPUSCULAR HEMOGLOBIN CONCENTRATION (72 h, time 3 day): 37.2 G/DL
MEAN CORPUSCULAR VOLUME (72 h, time 3 day): 63.33 fL
MONOCYTE (72 h, time 3 day): 1%
NEUTROPHIL (72 h, time 3 day): 11%
NUCLEATED RED BLOOD CELLS (72 h, time 3 day): 0 /100WBC
PLATELET COUNT (72 h, time 3 day): 1028.33 x10E3/uL
ALANINE AMINOTRANSFERASE (72 h, time 3 day): 48.33 u/L
ALBUMIN (72 h, time 3 day): 4.43 G/DL
ALKALINE PHOSPHATASE (72 h, time 3 day): 514.33 u/L
ASPARTATE AMINOTRANSFERASE (72 h, time 3 day): 96 u/L
BLOOD UREA NITROGEN (72 h, time 3 day): 15.67 mg/dL
CARBON DIOXIDE (72 h, time 3 day): 31.33 mmol/L
CHLORIDE (72 h, time 3 day): 101.5 MEQ/L
CHOLESTEROL (72 h, time 3 day): 68.67 mg/dL
CREATINE PHOSPHOKINASE (72 h, time 3 day): 316.33 u/L
CREATININE (72 h, time 3 day): 0.23 mg/dL
GLUCOSE (72 h, time 3 day): 142 mg/dL
LACTATE DEHYDROGENASE (72 h, time 3 day): 121.67 u/L
LIPASE (72 h, time 3 day): 9.67 u/L
PHOSPHORUS (72 h, time 3 day): 11.03 mg/dL
POTASSIUM (72 h, time 3 day): 5.91 MEQ/L
SODIUM (72 h, time 3 day): 144.65 MEQ/L
TOTAL BILIRUBIN (72 h, time 3 day): 0.1 mg/dL
TOTAL PROTEIN (72 h, time 3 day): 6.13 G/DL
URIC ACID (72 h, time 3 day): 0.67 mg/dL
ABSOLUTE BASOPHIL (120 h, time 5 day): 0 CELLS/uL
ABSOLUTE EOSINOPHIL (120 h, time 5 day): 0 CELLS/uL
ABSOLUTE LYMPHOCYTE (120 h, time 5 day): 10092.67 CELLS/uL
ABSOLUTE MONOCYTE (120 h, time 5 day): 194 CELLS/uL
ABSOLUTE SEGMENTED NEUTROPHIL (120 h, time 5 day): 1180 CELLS/uL
BASOPHIL (120 h, time 5 day): 0%
EOSINOPHIL (120 h, time 5 day): 0%
ERYTHROCYTE COUNT (120 h, time 5 day): 5.77 x10E6/uL
HEMATOCRIT (120 h, time 5 day): 37.27%
HEMOGLOBIN (120 h, time 5 day): 13.97 G/DL
LEUKOCYTE COUNT (120 h, time 5 day): 11.47 x10E3/uL
LYMPHOCYTE (120 h, time 5 day): 87.33%
MEAN CORPUSCULAR HEMOGLOBIN (120 h, time 5 day): 24.17 pg
MEAN CORPUSCULAR HEMOGLOBIN CONCENTRATION (120 h, time 5 day): 37.5 G/DL
MEAN CORPUSCULAR VOLUME (120 h, time 5 day): 64.5 fL
MONOCYTE (120 h, time 5 day): 1.33%
NEUTROPHIL (120 h, time 5 day): 11.33%
NUCLEATED RED BLOOD CELLS (120 h, time 5 day): 0 /100WBC
PLATELET COUNT (120 h, time 5 day): 1201.33 x10E3/uL
ALANINE AMINOTRANSFERASE (120 h, time 5 day): 48.67 u/L
ALBUMIN (120 h, time 5 day): 4.57 G/DL
ALKALINE PHOSPHATASE (120 h, time 5 day): 385 u/L
ASPARTATE AMINOTRANSFERASE (120 h, time 5 day): 86.33 u/L
BLOOD UREA NITROGEN (120 h, time 5 day): 15.67 mg/dL
CARBON DIOXIDE (120 h, time 5 day): 35.33 mmol/L
CHLORIDE (120 h, time 5 day): 99.67 MEQ/L
CHOLESTEROL (120 h, time 5 day): 83.67 mg/dL
CREATINE PHOSPHOKINASE (120 h, time 5 day): 586 u/L
CREATININE (120 h, time 5 day): 0.2 mg/dL
GLUCOSE (120 h, time 5 day): 151 mg/dL
LACTATE DEHYDROGENASE (120 h, time 5 day): 148.33 u/L
LIPASE (120 h, time 5 day): 9.33 u/L
PHOSPHORUS (120 h, time 5 day): 10.9 mg/dL
POTASSIUM (120 h, time 5 day): 6.38 MEQ/L
SODIUM (120 h, time 5 day): 143.9 MEQ/L
TOTAL BILIRUBIN (120 h, time 5 day): 0.2 mg/dL
TOTAL PROTEIN (120 h, time 5 day): 6.77 G/DL
URIC ACID (120 h, time 5 day): 0.8 mg/dL
